Measured values as given in patent publication US20240082409A1, “Modified peptide ligands for stable delivery of highly potent payloads to tumors: Method of making and using same” (priority 2020, published 2024).
Where “and” joins values, the source holds several entries; their conditions need not be identical. Equal entries are not always repeated. Entries after “also recorded” stand apart in the source; their conditions may differ. Numbered stars: 1 amine (or outer) side, 2 acyl side, 3 side chain; on linkers, the order of the positions; unused ones are H or OH. Bridge positions count the residues as written; N and C are the ends. Square brackets hold non-standard residues; d marks the D form. Peptide text beside a SMILES is read from it. I, II: the chains in the order shown. * marks the point of attachment. X1 = O=C([C@@H](CCCCn1nnc2c1-c1ccccc1N([*:3])Cc1ccccc1-2)N[*:1])[*:2]; Dolaproine = CO[C@@H]([C@@H]1CCCN1)[C@@H](C)C(=O)O; X3 = O=C(CCC(=O)[*:1])NCCOCCOCCOCCC(=O)[*:2]; Dil = CC[C@H](C)[C@H](NC)[C@@H](CC(=O)O)OC; PABC = O=C(OCc1ccc(N[*:1])cc1)[*:2]; X2 = C[C@@H](N*)[C@@H](O)c1ccccc1; d3Pal = N[C@H](Cc1cccnc1)C(=O)O; Cit = NC(=O)NCCC[C@H](N)C(=O)O; pGlu = O=C1CC[C@@H](C(=O)O)N1; NMeV = CN[C@H](C(=O)O)C(C)C

Assays:
[1] = In-vitro potency of LHRH-based drug conjugates (summary statement); conditions: cell line not stated
[2] = In-vitro stability in human plasma (RP-HPLC/mass spectrometry); type: in vitro ADME
Protocol: (§1) FIGS. 7A, 7B, 7C and 7D depicts the in-vitro stability of OTS-P23 in human plasma at 0, 2, 8 and 24 hours incubation times respectively in accordance with a preferred embodiment of the present invention. OTS-P23 is incubated at 100 μg/100 μl in 80% plasma from human or for 0, 2, 8 or 24 hours. Solutions are then centrifuged using Amicon centrifugal devices (cut-off 10 KDa) and 20 μl of the lower molecular weight fractions are analyzed by RP-HPLC/mass spectrometry. […] A minor peak (2.26%) was detected with a molecular weight of 2240.3 Dalton (metabolite).
as §1, with “FIGS. 13A, 13B, 13C” for “FIGS. 7A, 7B, 7C”, “and 13D” for “and 7D”, “of OTS-P28” for “of OTS-P23”

[3] = tested on: HCC1806 TNBC cell line; assay: MTS proliferation (viability) assay, HCC1806; type: cell-based, human
Protocol: (§2) FIG. 2A depicts the viability of HCC1806 and BT-549 TNBC cell lines as well as normal 3T3 mouse fibroblasts in presence of peptide drug conjugate OTS-P22 at increasing concentrations (Log 0.165-100 nM). Cells were plated at 10,000 cells/well on 96-well plates in RPMI or DMEM medium (pH 7.4) with 10% FBS or 10% BCS and after attachment they were washed and incubated with OTS-P22 in complete medium without antibiotics for 3 hours. After 3 hours, cells were washed and then incubated in complete medium without antibiotics for an additional 93 hours. At the end of the incubation period cells were washed and cell viability was measured using MTS assay according to the manufacturer's instructions (Promega, Madison, WI). Data shown are percentage mean value and standard error of triplicate measurements. Differences between mean values were evaluated by one-way ANOVA followed by Tukey's honestly significant difference procedure. **<0.01 were highly significant.

[4] = tested on: HCC1806 TNBC CDX; assay: Tumor growth of HCC1806 xenografts in female SCID mice; type: in vivo
Protocol: FIG. 4A depicts tumor volume in female SCID mice bearing HCC1806 TNBC CDX during treatment with saline; OTS-P22 or MMAE at a single i.v. injection of 0.5 μmol/kg on day 0 (arrow). Tumor volume values in mm^3 are presented as mean±standard error of 10 mice per group. Statistical analysis was performed using ANOVA followed by Tukey's multiple comparison test. ***<0.001, **<0.01, *<0.05 were significant.

[5] = Animal weight, hematology and normal organ histology in treated SCID mice; type: in vivo; conditions: for effect on animal weight: single i.v. injection 0.5 μmol/kg, SCID mice bearing HCC1806
Excerpt: FIG. 4B depicts animal weight in female SCID mice bearing HCC1806 TNBC CDX during treatment with saline; OTS-P22 or MMAE at a single i.v. injection of 0.5 μmol/kg on day 0 (arrow). […] are presented as mean±standard error of 10 mice per group.
FIG. 5A depict hematology parameters of saline- and OTS-P22 treated SCID mice bearing HCC1806 TNBC xenografts (n=10) as described in FIG. 4A and into in accordance with the preferred embodiment of the present invention;
FIG. 5B depict representative hematoxylin-eosin staining slides of normal organs from saline- and OTS-P22 treated SCID mice bearing HCC1806 TNBC xenografts as described in FIG. 4A and into in accordance with the preferred embodiment of the present invention;

[6] = tested on: normal 3T3 mouse fibroblasts; conditions: 0.165-100 nM, 3 hours exposure, then 93 hours, MTS
Protocol: as §2

[7] = tested on: caspase activity in HCC1806 cells; conditions: 100 nM, 48 hours
Protocol: At the end of the incubation, cells were washed three times, lyzed and proteins quantified using Bradford reagents. Apoptosis assay was performed using 100 μg proteins according to ApoTarget Caspase Colorimetric Protease Assay Sampler Kit instructions (Invitrogen, Carlsbad, CA).

Q: With “Glp-His-DPal-Ser-Tyr-DCys[dPEG8-Val-Cit-PABC-MMAE]-Leu-Arg-Pro-DAla-NH2 [OTS-P28]” as the compound, how does the “in-vitro potency (in words)” value [1] read?
A: higher potency at low nanomolar concentrations

Q: What about the “stability in human plasma (in words)” value ([2]; human plasma) of the same compound?
A: highly stable

Q: What about the “anti-proliferative activity in-vitro on HCC1806 TNBC cell line (in words)” value [3] of the same compound?
A: low nanomolar concentrations

Q: With `CC[C@H](C)[C@@H]([C@@H](CC(=O)N1CCC[C@H]1[C@H](OC)[C@@H](C)C(=O)N[C@H](C)[C@@H](O)c1ccccc1)OC)N(C)C(=O)[C@@H](NC(=O)[C@@H](NC)C(C)C)C(C)C` [MMAE, monomethyl auristatin E, reference compound] (H-[NMeV]V[Dil][Dolaproine]-X2) as the compound, how does the “effect on tumor growth (in words)” value ([4]; single i.v. injection 0.5 μmol/kg, end of 21 days study) read?
A: did not show any significant tumor growth inhibition; also recorded: no significant effect

Q: And the “effect on animal weight” value [5]?
A: Neither treatment with OTS-P22 or MMAE affected animal weight

Q: With “Glp-His-Trp-DSer-Tyr-DLys[-dPEG5-Val-Cit-PABC-MMAE]-Leu-Arg-Pro-NHEt [OTS-P23b]” as the compound, how does the “in-vitro potency (in words)” value [1] read?
A: higher potency at low nanomolar concentrations

Q: For “Glp-DHis-Trp-DSer-Tyr-DLys[Glut-Val-Cit-PABC-MMAE]-Leu-Arg-Pro-DAla-NH2 [OTS-P31]”, which “in-vitro potency (in words)” value [1] is on record?
A: higher potency at low nanomolar concentrations

Q: Which results are given for “Glp-His-DPal-Ser-Tyr-DCys[Val-Cit-PABC-MMAE]-Leu-Arg-Pro-DAla-NH2 [OTS-P26]”?
A: in-vitro potency (in words) [1]: higher potency at low nanomolar concentrations; effect on viability of HCC1806 TNBC cells (in words) ([3]; MTS proliferation assay): dose-dependent manner

Q: Which “potency relative to AEZS-108 in term of in-vivo tumor growth inhibition of HCC1806 xenografts” value ([4]; compared with first generation conjugate AEZS-108) does the source give for `CC[C@H](C)[C@@H]([C@@H](CC(=O)N1CCC[C@H]1[C@H](OC)[C@@H](C)C(=O)N[C@H](C)[C@@H](O)c1ccccc1)OC)N(C)C(=O)[C@@H](NC(=O)[C@H](C(C)C)N(C)C(=O)OCc1ccc(NC(=O)[C@H](CCCNC(N)=O)NC(=O)[C@@H](NC(=O)CCOCCOCCOCCNC(=O)CCC(=O)N2Cc3ccccc3-c3nnn(CCCC[C@@H](NC(=O)[C@H](Cc4ccc(O)cc4)NC(=O)[C@H](CO)NC(=O)[C@@H](Cc4cccnc4)NC(=O)[C@H](Cc4c[nH]cn4)NC(=O)[C@@H]4CCC(=O)N4)C(=O)N[C@@H](CC(C)C)C(=O)N[C@@H](CCCNC(=N)N)C(=O)N4CCC[C@H]4C(=O)N[C@H](C)C(N)=O)c3-c3ccccc32)C(C)C)cc1)C(C)C` [OTS-P22, Glp-His-DPal-Ser-Tyr-DLys[dPEG3-Val-Cit-PABC-MMAE]-Leu-Arg-Pro-DAla-NH2] (I: [pGlu]H[d3Pal]SY[X1]LRP[dA]-NH2 / II: V[Cit][PABC][NMeV]V[Dil][Dolaproine]-X2; linker I:6-II:N via X3) here?
A: at least 16 times

Q: What about the partial response ([4]; single i.v. 0.5 μmol/kg, 21 days, 80.5% in 2/10 mice, 88.5% in 1/10 mice) of the same compound?
A: 80.5% and 88.5%

Q: What about the tumor growth inhibition ([4]; single i.v. injection 0.5 μmol/kg (1.435 mg/kg), 21 days post-treatment, SCID mice) of the same compound?
A: 100%

Q: What about the “mice showing complete response” value ([4]; single i.v. injection 0.5 μmol/kg, 21 days post-treatment, 10 mice per group) of the same compound?
A: 7/10

Q: And the “in-vitro potency (in words)” value [1]?
A: higher potency at low nanomolar concentrations

Q: And the effect on hematology ([5]; SCID mice bearing HCC1806 xenografts)?
A: No signifcant effect

Q: What about the “effect on normal tissue histology” value ([5]; SCID mice bearing HCC1806 xenografts, hematoxylin-eosin) of the same compound?
A: No signifcant effect

Q: And the “effect on animal weight” value [5]?
A: No signifcant effect; also recorded: Neither treatment with OTS-P22 or MMAE affected animal weight

Q: What about the “minor peak (metabolite, 2240.3 Dalton)” value ([2]; 80% human plasma, 8 hours incubation) of the same compound?
A: 2.26%

Q: What about the conjugate still intact ([2]; 80% human plasma, 8 hours incubation, 100 μg/100 μl) of the same compound?
A: 97.74%

Q: And the remaining at 8 h, 100 μg/100 μl ([2]; 80% human plasma, 8 hours incubation, 100 μg/100 μl, read-out: conjugate still intact)?
A: 97.7%

Q: What about the “effect on viability of 3T3 normal fibroblasts” value [6] of the same compound?
A: no effect

Q: And the “increase of caspase activity as compared to saline-treated cells” value [7]?
A: 1.5 fold

Q: Which “in-vitro potency (in words)” value [1] does the source give for “Glp-His-DPal-Ser-Tyr-DLys[dPEG8-Val-Cit-PABC-MMAE]-Leu-Arg-Pro-DAla-NH2 [OTS-P23]” here?
A: higher potency at low nanomolar concentrations
